Results published in PMC8276018, “The Prostacyclin Analogue, Treprostinil, Used in the Treatment of Pulmonary Arterial Hypertension, is a Potent Antagonist of TREK-1 and TREK-2 Potassium Channels” (Frontiers in Pharmacology, 2021).
Residue numbers refer to the chain shown, from its start. pIC50: −log10 of the molar value.

Experiments:
Type in all cases: cell-based
TREK-1 [1] = molecular target: T1, TREK-1 (Homo sapiens, UniProt O95069); experiment: whole-cell patch-clamp, current activation at […]; details: read-out: % current enhancement at 1 μM
T1 construct: gene KCNK2; NP_055032.1, wild type, expressed in tsA201 cells
T1 sequence (O95069 1-426): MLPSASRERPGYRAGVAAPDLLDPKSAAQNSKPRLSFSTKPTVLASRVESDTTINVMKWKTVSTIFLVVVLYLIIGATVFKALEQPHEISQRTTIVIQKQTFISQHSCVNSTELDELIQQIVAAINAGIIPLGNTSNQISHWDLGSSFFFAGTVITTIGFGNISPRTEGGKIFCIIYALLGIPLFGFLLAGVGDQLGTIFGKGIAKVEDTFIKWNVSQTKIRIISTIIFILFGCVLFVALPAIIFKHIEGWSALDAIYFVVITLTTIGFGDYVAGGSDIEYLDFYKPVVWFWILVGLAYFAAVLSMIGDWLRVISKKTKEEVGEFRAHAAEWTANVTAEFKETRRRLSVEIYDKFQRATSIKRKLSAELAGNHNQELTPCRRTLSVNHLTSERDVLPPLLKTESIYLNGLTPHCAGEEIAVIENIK

TREK-2 [2] = molecular target: T2, TREK-2 (Homo sapiens, UniProt P57789); experiment: whole-cell patch-clamp, current activation at […]; details: read-out: % current enhancement at 1 μM
T2 construct: gene KCNK10; NP_612190.1, wild type, expressed in tsA201 cells
T2 sequence (P57789 1-538): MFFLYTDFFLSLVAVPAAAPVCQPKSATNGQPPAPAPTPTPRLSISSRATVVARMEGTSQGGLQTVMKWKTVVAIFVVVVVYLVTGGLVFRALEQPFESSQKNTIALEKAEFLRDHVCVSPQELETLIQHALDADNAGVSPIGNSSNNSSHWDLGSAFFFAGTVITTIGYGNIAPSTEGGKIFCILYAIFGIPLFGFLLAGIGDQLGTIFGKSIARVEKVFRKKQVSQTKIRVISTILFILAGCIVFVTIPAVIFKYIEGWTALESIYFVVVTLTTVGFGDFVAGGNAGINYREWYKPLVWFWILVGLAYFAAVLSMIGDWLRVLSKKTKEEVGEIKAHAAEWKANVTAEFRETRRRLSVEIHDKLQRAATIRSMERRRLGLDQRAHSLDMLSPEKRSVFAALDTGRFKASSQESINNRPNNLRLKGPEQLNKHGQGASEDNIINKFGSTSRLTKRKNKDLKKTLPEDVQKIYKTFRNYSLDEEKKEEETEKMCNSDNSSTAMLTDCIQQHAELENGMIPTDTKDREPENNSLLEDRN

TREK-1 [3] = molecular target: T3, TREK-1 (Homo sapiens, UniProt O95069, Q91A); experiment: whole-cell patch-clamp, […]
T3 construct: gene KCNK2; homodimeric mutant channel in tsA201 cells
T3 sequence (O95069 1-411 isoform O95069-2 Q76A): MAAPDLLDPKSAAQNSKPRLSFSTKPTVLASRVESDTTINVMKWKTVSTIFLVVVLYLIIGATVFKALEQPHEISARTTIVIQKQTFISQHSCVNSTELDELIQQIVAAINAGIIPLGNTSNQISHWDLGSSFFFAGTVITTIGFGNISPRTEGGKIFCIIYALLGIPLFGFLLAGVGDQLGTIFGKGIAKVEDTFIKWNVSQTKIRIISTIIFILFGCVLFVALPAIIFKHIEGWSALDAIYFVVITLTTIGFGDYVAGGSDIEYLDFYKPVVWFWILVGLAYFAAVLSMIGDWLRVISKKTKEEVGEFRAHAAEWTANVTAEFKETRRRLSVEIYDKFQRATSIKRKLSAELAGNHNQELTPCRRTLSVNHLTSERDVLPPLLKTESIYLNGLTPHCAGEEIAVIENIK

TREK-1 [4] = molecular target: T4, TREK-1 (Homo sapiens, UniProt O95069, I95A); experiment: whole-cell patch-clamp, […]
T4 construct: gene KCNK2; homodimeric mutant channel in tsA201 cells
T4 sequence (O95069 1-411 isoform O95069-2 I80A): T3 sequence (O95069 1-411 isoform O95069-2 Q76A) with A76Q, I80A

TREK-1 [5] = molecular target: T5, TREK-1 (Homo sapiens, UniProt O95069, L304A); experiment: whole-cell patch-clamp, […]
T5 construct: gene KCNK2; homodimeric mutant channel in tsA201 cells
T5 sequence (O95069 1-411 isoform O95069-2 L289A): T3 sequence (O95069 1-411 isoform O95069-2 Q76A) with A76Q, L289A

TREK-2 [6] = molecular target: T2, TREK-2; experiment: whole-cell patch-clamp, concentration-response
TREK-2 [7] = molecular target: T6, TREK-2 (Homo sapiens, UniProt P57789, L315A); experiment: whole-cell patch-clamp, […]
T6 construct: gene KCNK10; homodimeric mutant channel in tsA201 cells
T6 sequence (P57789 1-538 L315A): T2 sequence (P57789 1-538) with L315A

TREK-1 [8] = molecular target: T7, TREK-1 (Homo sapiens, UniProt O95069, L117A); experiment: whole-cell patch-clamp, […]
T7 construct: gene KCNK2; homodimeric mutant channel in tsA201 cells
T7 sequence (O95069 16-426 L117A): T3 sequence (O95069 1-411 isoform O95069-2 Q76A) with M1V, A76Q, L102A

TREK-1 [9] = molecular target: T8, TREK-1 (Homo sapiens, UniProt O95069, Y299A); experiment: whole-cell patch-clamp, […]
T8 construct: gene KCNK2; homodimeric mutant channel in tsA201 cells
T8 sequence (O95069 1-411 isoform O95069-2 Y284A): T3 sequence (O95069 1-411 isoform O95069-2 Q76A) with A76Q, Y284A

TREK-1 [10] = molecular target: T1, TREK-1; experiment: whole-cell patch-clamp, concentration-response

activation at 1 µM (TREK-1 [1])	activation at 1 µM (TREK-2 [2])	SMILES	inhibition at 1 µM (TREK-1 [3])	inhibition at 1 µM (TREK-1 [4])	inhibition at 1 µM (TREK-1 [5])	pIC50 (TREK-2 [6])	inhibition at 1 µM (TREK-2 [7])	inhibition at 1 µM (TREK-1 [8])	inhibition at 1 µM (TREK-1 [9])	pIC50 (TREK-1 [10])
144%	192%	c1ccc(-c2nn[nH]n2)c(Nc2cccc3c2CCCC3)c1 [BL-1249]	–	–	–	–	–	–	–	–
–	–	CCCCC[C@H](O)CC[C@@H]1[C@H]2Cc3cccc(OCC(=O)O)c3C[C@H]2C[C@H]1O [treprostinil]	89%	78.2%	72%	7.40	74%	88%	58%	7.52
